Reference: PubChem BioAssay AID292 (DTP/NCI, 2004)
Where “and” joins values, the source holds several entries; their conditions need not be identical. Equal values may be shown once. Inconclusive results and toxic doses are left out.

System: B6C3F1 mice, ip Sarcoma M5076, median survival T/C
Experiment: NCI In Vivo Anticancer Drug Screen. Data for tumor model Sarcoma M5076 (intraperitoneal) in B6C3F1 mice
Conditions: endpoint: median survival time, higher = longer survival
Protocol: The antitumor activity of compounds was measured in mice bearing transplantable tumors. Survival or tumor size were measured and the results are expressed as the measurement made in the treated group (T) divided by the measurement made in the vehicle treated control group (C). The tumor model used in this assay is Sarcoma M5076 (intraperitoneal) in B6C3F1 mice

[1] = dose: 25.0 mg/kg/injection, schedule: Q04DX004 (ip), vehicle: saline with Tween-80
[2] = dose: 50.0 mg/kg/injection, schedule: Q04DX004 (ip), vehicle: saline with Tween-80
[3] = dose: 100.0 mg/kg/injection, schedule: Q04DX004 (ip), vehicle: saline with Tween-80
[4] = dose: 50.0 mg/kg/injection, schedule: Q04DX004 (ip), vehicle: Klucel (hydroxypropylcellulose) (HPC)
[5] = dose: 100.0 mg/kg/injection, schedule: Q04DX004 (ip), vehicle: Klucel (hydroxypropylcellulose) (HPC)
[6] = dose: 200.0 mg/kg/injection, schedule: Q04DX004 (ip), vehicle: Klucel (hydroxypropylcellulose) (HPC)
[7] = dose: 400.0 mg/kg/injection, schedule: Q04DX004 (ip), vehicle: Klucel (hydroxypropylcellulose) (HPC)
[8] = dose: 800.0 mg/kg/injection, schedule: Q04DX004 (ip), vehicle: Klucel (hydroxypropylcellulose) (HPC)
[9] = dose: 200.0 mg/kg/injection, schedule: Q04DX004 (ip), vehicle: saline with Tween-80
[10] = dose: 400.0 mg/kg/injection, schedule: Q04DX004 (ip), vehicle: saline with Tween-80
[11] = dose: 50.0 mg/kg/injection, schedule: Q04DX004 (ip), vehicle: suspension in saline
[12] = dose: 100.0 mg/kg/injection, schedule: Q04DX004 (ip), vehicle: suspension in saline

`C[CH2][Sn]([CH2]C)([CH2]C(=O)OC)[CH2]C(=O)OC` was tested, and the T/C (dose: 1.5 mg/kg/injection, schedule: Q04DX004 (ip), vehicle: saline with Tween-80) was 96 % of control, the T/C (dose: 3.0 mg/kg/injection, schedule: Q04DX004 (ip), vehicle: saline with Tween-80) was 93 % of control and the T/C (dose: 6.0 mg/kg/injection, schedule: Q04DX004 (ip), vehicle: saline with Tween-80) was 95 % of control. For the same compound, the T/C (dose: 12.0 mg/kg/injection, schedule: Q04DX004 (ip), vehicle: saline with Tween-80) was 92 % of control.

With `CCCC1CCC(=C2C(=O)CCC2=O)O1` (stereo not drawn) the T/C [1] was 101 % of control, the T/C [2] was 95 % of control and the T/C [3] was 96 % of control.

For `CCC1C(C#N)C(=O)NC(=O)C1C#N` (stereo not drawn), the T/C [4] was 104 % of control, the T/C [5] was 106 % of control and the T/C [6] was 107 % of control. For the same compound, the T/C [7] was 104 % of control and the T/C [8] was 110 % of control.

For `NC(=O)C1=NOC(C(N)=O)C1C1OC(CO)C(O)C1O` (stereo not drawn), the T/C (dose: 37.5 mg/kg/injection, schedule: Q04DX004 (ip), vehicle: water) was 100 % of control, the T/C (dose: 75.0 mg/kg/injection, schedule: Q04DX004 (ip), vehicle: water) was 98 % of control and the T/C (dose: 150.0 mg/kg/injection, schedule: Q04DX004 (ip), vehicle: water) was 103 % of control. The T/C (dose: 300.0 mg/kg/injection, schedule: Q04DX004 (ip), vehicle: water) was 106 % of control and the T/C (dose: 600.0 mg/kg/injection, schedule: Q04DX004 (ip), vehicle: water) was 100 % of control.

With `Cc1[nH]c(=O)[nH]c(=O)c1C=O` the T/C [2] was 100 % of control, the T/C [3] was 101 % of control and the T/C [9] was 98 % of control. For the same compound, the T/C [10] was 96 % of control.

With `O=[N+]([O-])c1ccc([I+]c2ccccc2)cc1` the T/C (dose: 6.25 mg/kg/injection, schedule: Q04DX004 (ip), vehicle: Klucel (hydroxypropylcellulose) (HPC)) was 95 % of control, the T/C (dose: 12.5 mg/kg/injection, schedule: Q04DX004 (ip), vehicle: Klucel (hydroxypropylcellulose) (HPC)) was 109 % of control and the T/C (dose: 25.0 mg/kg/injection, schedule: Q04DX004 (ip), vehicle: Klucel (hydroxypropylcellulose) (HPC)) was 99 % of control. The T/C [4] was 106 % of control.

In the case of `NC(=O)c1c[se]c(C2OC(CO)C(O)C2O)n1` (stereo not drawn), the T/C (dose: 25.0 mg/kg/injection, schedule: Q04DX004 (ip), vehicle: water) is reported as 96 % of control, the T/C (dose: 50.0 mg/kg/injection, schedule: Q04DX004 (ip), vehicle: water) is reported as 100 % of control and the T/C (dose: 100.0 mg/kg/injection, schedule: Q04DX004 (ip), vehicle: water) is reported as 102 % of control. For the same compound, the T/C (dose: 200.0 mg/kg/injection, schedule: Q04DX004 (ip), vehicle: water) was 106 % of control and the T/C (dose: 400.0 mg/kg/injection, schedule: Q04DX004 (ip), vehicle: water) was 113 % of control.

With `CCOC(=O)/C=C1/SC(N2CCCCC2)C(=O)N1CC` (stereo not drawn) the T/C [4] was 96 % of control, the T/C [5] was 96 % of control and the T/C [6] was 97 % of control. For the same compound, the T/C [7] was 94 % of control.

`NC(=O)C1C=CN(Cc2ccccc2)C=C1` was tested, and the T/C [2] was 111 % of control, the T/C [3] was 116 % of control and the T/C [9] was 106 % of control.

In the case of `CCOC(=O)c1c(C(=O)OC)nc2n1-c1ccccc1OC2`, the T/C (dose: 31.25 mg/kg/injection, schedule: Q04DX004 (ip), vehicle: saline with Tween-80) is reported as 100 % of control, the T/C (dose: 62.0 mg/kg/injection, schedule: Q04DX004 (ip), vehicle: saline with Tween-80) is reported as 103 % of control and the T/C (dose: 125.0 mg/kg/injection, schedule: Q04DX004 (ip), vehicle: saline with Tween-80) is reported as 100 % of control. The T/C (dose: 250.0 mg/kg/injection, schedule: Q04DX004 (ip), vehicle: saline with Tween-80) was 88 % of control and the T/C (dose: 500.0 mg/kg/injection, schedule: Q04DX004 (ip), vehicle: saline with Tween-80) was 96 % of control.

For `C=CC(=O)OCCOCN(COCCOC(=O)C=C)c1nc(N(COCCOC(=O)C=C)COCCOC(=O)C=C)nc(N(COCCOC(=O)C=C)COCCOC(=O)C=C)n1`, the T/C (dose: 18.75 mg/kg/injection, schedule: Q04DX004 (ip), vehicle: saline with Tween-80) was 103 % of control, the T/C (dose: 37.5 mg/kg/injection, schedule: Q04DX004 (ip), vehicle: saline with Tween-80) was 100 % of control and the T/C (dose: 75.0 mg/kg/injection, schedule: Q04DX004 (ip), vehicle: saline with Tween-80) was 110 % of control. For the same compound, the T/C (dose: 150.0 mg/kg/injection, schedule: Q04DX004 (ip), vehicle: saline with Tween-80) was 104 % of control.

For `COc1nc(C(Cl)(Cl)Cl)c(Cl)c(OC)c1Cl`, the T/C [4] was 99 % of control, the T/C [5] was 114 % of control and the T/C (dose: 179.0 mg/kg/injection, schedule: Q04DX004 (ip), vehicle: Klucel (hydroxypropylcellulose) (HPC)) was 152 % of control. The T/C (dose: 179.6 mg/kg/injection, schedule: Q04DX004 (ip), vehicle: Klucel (hydroxypropylcellulose) (HPC)) was 121 % of control and the T/C [7] was 168 % of control.

`O=C1N[C@@H]([C@H]2CC[C@H](Cl)CN2)C(=O)N[C@H]1[C@H]1CC[C@H](Cl)CN1` was tested, and the T/C (dose: 0.5 mg/kg/injection, schedule: Q04DX005 (ip), vehicle: saline) was 115 % of control, the T/C (dose: 2.0 mg/kg/injection, schedule: Q04DX005 (ip), vehicle: saline) was 185 % of control and the T/C (dose: 4.0 mg/kg/injection, schedule: Q04DX005 (ip), vehicle: saline) was 319 % of control. The T/C (dose: 8.0 mg/kg/injection, schedule: Q04DX005 (ip), vehicle: saline) was 319 % of control.

`C[C@]12C=CC(=O)C=C1CC[C@@H]1[C@@H]2C(=O)C[C@@]2(C)[C@H]1CC[C@]2(O)C(=O)CO` was tested, and the T/C [4] was 105 % of control and 123 % of control, the T/C [5] was 118 % of control and the T/C [6] was 116 % of control. The T/C [7] was 94 % of control.

`C[n+]1c2cc(N)ccc2cc2ccc(N)cc21` was tested, and the T/C (dose: 1.5 mg/kg/injection, schedule: Q04DX004 (ip), vehicle: saline) was 101 % of control, the T/C (dose: 3.0 mg/kg/injection, schedule: Q04DX004 (ip), vehicle: saline) was 94 % of control and the T/C (dose: 6.0 mg/kg/injection, schedule: Q04DX004 (ip), vehicle: saline) was 106 % of control and 118 % of control and 120 % of control. The T/C (dose: 12.0 mg/kg/injection, schedule: Q04DX004 (ip), vehicle: saline) was 116 % of control and 123 % of control and the T/C (dose: 24.0 mg/kg/injection, schedule: Q04DX004 (ip), vehicle: saline) was 112 % of control.

For `CCOC(=O)Nc1cc(NC(C)/C(=N/O)c2ccccc2)c([N+](=O)[O-])c(N)n1` (stereo not drawn), the T/C [4] was 99 % of control and 100 % of control, the T/C [5] was 109 % of control and 123 % of control and the T/C (dose: 172.8 mg/kg/injection, schedule: Q04DX004 (ip), vehicle: Klucel (hydroxypropylcellulose) (HPC)) was 107 % of control. For the same compound, the T/C (dose: 288.0 mg/kg/injection, schedule: Q04DX004 (ip), vehicle: Klucel (hydroxypropylcellulose) (HPC)) was 119 % of control, the T/C [7] was 156 % of control and the T/C (dose: 13333.3 mg/kg/injection, schedule: Q04DX004 (ip), vehicle: Klucel (hydroxypropylcellulose) (HPC)) was 119 % of control.

With `Cc1cn(C2CC(F)C(CO)O2)c(=O)[nH]c1=O` (stereo not drawn) the T/C (dose: 7.5 mg/kg/injection, schedule: Q04DX004 (ip), vehicle: suspension in saline) was 111 % of control, the T/C (dose: 150.0 mg/kg/injection, schedule: Q04DX004 (ip), vehicle: suspension in saline) was 101 % of control and the T/C (dose: 300.0 mg/kg/injection, schedule: Q04DX004 (ip), vehicle: suspension in saline) was 111 % of control. For the same compound, the T/C (dose: 600.0 mg/kg/injection, schedule: Q04DX004 (ip), vehicle: suspension in saline) was 117 % of control.

With `Oc1c(Cl)cc(Cl)cc1C1Nc2ccccc2-n2cccc21` (stereo not drawn) the T/C (dose: 12.5 mg/kg/injection, schedule: Q04DX004 (ip), vehicle: saline with Tween-80) was 90 % of control, the T/C [1] was 88 % of control and the T/C [2] was 86 % of control and 92 % of control. The T/C [10] was 87 % of control and the T/C (dose: 800.0 mg/kg/injection, schedule: Q04DX004 (ip), vehicle: saline with Tween-80) was 91 % of control.

In the case of `CC(=O)c1cccc(NC2C(N)C(NC(=O)N(C)C)(C(C)O)C(C)(O)C2(O)COC(=O)c2c(C)cccc2O)c1` (stereo not drawn), the T/C (dose: 2.5 mg/kg/injection, schedule: Q04DX004 (ip), vehicle: saline) is reported as 112 % of control and 114 % of control, the T/C (dose: 5.0 mg/kg/injection, schedule: Q04DX004 (ip), vehicle: saline) is reported as 105 % of control and 115 % of control and the T/C (dose: 10.0 mg/kg/injection, schedule: Q04DX004 (ip), vehicle: saline) is reported as 117 % of control and 120 % of control. The T/C (dose: 20.0 mg/kg/injection, schedule: Q04DX004 (ip), vehicle: saline) was 115 % of control.

`N/C(=N/N=C/c1cc(Br)cc(Br)c1O)NO` was tested, and the T/C (dose: 25.0 mg/kg/injection, schedule: Q04DX004 (ip), vehicle: suspension in saline) was 102 % of control, the T/C [11] was 98 % of control and the T/C [12] was 110 % of control.

With `C=CC(=O)NCNC(=O)C=C` the T/C [11] was 99 % of control and the T/C [12] was 115 % of control.

With `CCOC(=O)c1c[nH]c2ccc3c(nc(C)n3C)c2c1=O` the T/C [4] was 101 % of control, the T/C [5] was 104 % of control and the T/C [6] was 101 % of control. For the same compound, the T/C [7] was 98 % of control and the T/C [8] was 103 % of control.
